The results in this text go back to patent US20080318925A1 (ASTRAZENECA AB, priority 2007, published 2008).

In general, Ki refers to the dissociation constant of the complex between target and ligand, obtained from inhibition or displacement. A lower Ki goes with a stronger hold on the target.

The target in the experiment is T1, GABAA2 receptors (α2, β3, γ3 receptor subunits transfected into Sf9 cells) (Homo sapiens, UniProt P47869+Q99928).
T1 construct: host or cells: Sf9 cells (membranes)
T1 sequence (P47869 29-451): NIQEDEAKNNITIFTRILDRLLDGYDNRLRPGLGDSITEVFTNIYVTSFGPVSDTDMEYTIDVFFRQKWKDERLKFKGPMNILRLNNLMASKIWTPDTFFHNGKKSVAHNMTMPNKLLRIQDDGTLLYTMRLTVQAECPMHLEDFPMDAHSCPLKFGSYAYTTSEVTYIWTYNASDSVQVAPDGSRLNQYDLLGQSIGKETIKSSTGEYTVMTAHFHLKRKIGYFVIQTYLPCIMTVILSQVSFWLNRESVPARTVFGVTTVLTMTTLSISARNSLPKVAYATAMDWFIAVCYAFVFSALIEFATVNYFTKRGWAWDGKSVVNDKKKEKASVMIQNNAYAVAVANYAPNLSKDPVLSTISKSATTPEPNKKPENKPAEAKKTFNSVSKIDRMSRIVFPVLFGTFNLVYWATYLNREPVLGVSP
T1 sequence (P28472 26-473 partner): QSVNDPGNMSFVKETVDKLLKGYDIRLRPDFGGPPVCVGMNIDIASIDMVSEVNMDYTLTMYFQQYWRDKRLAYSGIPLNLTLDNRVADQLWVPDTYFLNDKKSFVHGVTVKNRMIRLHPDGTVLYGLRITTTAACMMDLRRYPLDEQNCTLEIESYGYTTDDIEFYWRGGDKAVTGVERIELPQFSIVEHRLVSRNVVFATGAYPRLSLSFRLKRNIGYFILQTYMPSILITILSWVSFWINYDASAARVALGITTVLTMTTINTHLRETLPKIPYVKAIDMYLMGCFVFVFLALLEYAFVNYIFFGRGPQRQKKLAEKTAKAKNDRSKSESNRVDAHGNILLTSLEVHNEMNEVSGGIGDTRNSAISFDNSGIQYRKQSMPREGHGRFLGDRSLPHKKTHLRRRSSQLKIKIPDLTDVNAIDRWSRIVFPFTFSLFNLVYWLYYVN
T1 sequence (Q99928 18-467): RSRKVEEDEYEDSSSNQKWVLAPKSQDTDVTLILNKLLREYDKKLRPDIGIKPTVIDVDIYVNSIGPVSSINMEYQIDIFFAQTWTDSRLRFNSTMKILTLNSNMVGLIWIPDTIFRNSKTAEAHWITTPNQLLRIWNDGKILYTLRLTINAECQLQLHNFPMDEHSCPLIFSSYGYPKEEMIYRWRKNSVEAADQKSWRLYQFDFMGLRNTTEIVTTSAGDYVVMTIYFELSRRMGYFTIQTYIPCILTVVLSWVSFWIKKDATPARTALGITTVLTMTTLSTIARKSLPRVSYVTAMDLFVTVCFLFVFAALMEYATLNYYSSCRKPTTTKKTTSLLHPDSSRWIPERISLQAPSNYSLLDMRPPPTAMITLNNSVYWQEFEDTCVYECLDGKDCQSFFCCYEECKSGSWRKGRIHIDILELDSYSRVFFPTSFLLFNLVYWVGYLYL
Kind of experiment: GABAA2 binding method ([3H]-flunitrazepam displacement). The conditions noted are these: [3H]-flunitrazepam ~2 nM, Sf9 membranes, 1 hr at 4° C. The method, then: In some embodiments, the binding test was directed to a subtype of GABAA receptors, such as GABAA1 receptors (i.e., those containing the α1 subunit), GABAA2 receptors (i.e., those containing the α2 subunit), GABAA3 receptors (i.e., those containing the α3 subunit) and GABAA5 receptors (i.e., those containing the α5 subunit).
• Assay and Wash Buffer: 50 mM Tris-Citrate, 200 mM NaCl, pH 7.8 Compounds at 10 mM in DMSO: Put 75 μl in column 1 of compound plate.
Flumazenil, 10 mM (for NSB)
[^3H]-Flunitrazepam (Cat #NET567): Prepare 10× stock=20 nM, [F} in assay=˜2 nM
1. […] Add 5 ul of 30 uM flumazenil to wells 12 D-E for 50% control wells.
2. Spot 2 μl of compound dilutions into dry plate (Automation Program 3). Manually spot 2 μl 10 mM flumazenil into wells 12 F-H for nonspecific control.
3. Make 1:100 dilution in assay buffer (2 μl into 200 μl) and dispense 25 μl compound into assay plates (Automation Program 4).
4. Dispense 200 μl membranes into assay plate (Automation Program 5).
5. Add 25 μl [^3H]-Flunitrazepam (Automation Program 6). Incubate for 1 hr at 4° C.
6. Collect membranes on a cell harvester onto GF/B filter plates (pre-wet with dH2O and wash 5× 400 μl/well, with cold assay buffer. (First 3 washes are considered hot; last two are cold.)
7. Dry plates for 2-3 hours at RT.
8. Add 40 μl Microscint 40/well (Automation Program 7); seal plates. Count on a TopCount.
Data is analyzed by calculating percent of control, IC50, and Ki in an XLfit template. The following formula is used in the templates: […]

`CCCNC(=O)c1nnc2c(-c3ccc(OC)cc3F)cccc2c1N` registered an inhibitory constant (Ki) of 4.17 nM.
`Cc1ccc(-c2cccc3c(N)c(C(=O)NC4CC4)nnc23)cn1` had a Ki of 4.02 nM.
`CCCNC(=O)c1nnc2c(-c3cc(Cl)cc(Cl)c3)cccc2c1N` registered an inhibition constant (Ki) of 22 nM.
With `CCCNC(=O)c1nnc2c(-c3ccccc3)c(OC)ccc2c1N` the figure was 91.4 nM; with `CCCNC(=O)c1nnc2c(-c3cccc(C#N)c3)cccc2c1N`, 1.18 nM.
The molecule `CCCNC(=O)c1nnc2c(-c3ccc(OC)cc3C(F)(F)F)cccc2c1N` had a Ki of 2.42 nM.
With `CCCNC(=O)c1nnc2c(-c3ccc(C)c(C)c3)cccc2c1N` the figure was 16.8 nM; with `CCCNC(=O)c1nnc2c(-c3cccc(Cl)c3Cl)cccc2c1N`, 1.82 nM.
The molecule `CCCNC(=O)c1nnc2c(-c3ccc4[nH]ccc4c3)cccc2c1N` yielded a Ki of 35 nM.
Regarding `CCCNC(=O)c1nnc2c(-c3cc(Cl)ccc3Cl)c(F)ccc2c1N`, the Ki stood at 1.34 nM.
Regarding `CCCNC(=O)c1nnc2c(-c3cc(Cl)ccc3Cl)cccc2c1N`, affinity was put at a Ki of 0.71 nM.
`CCCNC(=O)c1nnc2c(-c3cccc(OC(F)(F)F)c3)cccc2c1N` had a Ki of 47.8 nM.
With `CCCNC(=O)c1nnc2c(-c3cnccn3)cccc2c1N`, the affinity, expressed as Ki, was 20.4 nM.
For the molecule `CCCNC(=O)c1nnc2c(-c3ccc(C)nc3)cccc2c1N`, the affinity corresponds to a Ki of 4.11 nM.
`CCCNC(=O)c1nnc2c(-c3cc(Cl)ccc3OC)cccc2c1N` returned a Ki of 1.11 nM.
As for `CCCNC(=O)c1nnc2c(-c3cnc(OC)nc3)cccc2c1N`, the affinity corresponds to a Ki of 19.5 nM.
Molecule `CCCNC(=O)c1nnc2c(-c3cnc(OC)c(Cl)c3)cccc2c1N` had a Ki of 25.4 nM.
Turning to `CCNC(=O)c1nnc2c(-c3cnccc3OC)cccc2c1N`, affinity was put at a Ki of 4.36 nM.
Regarding `CCCNC(=O)c1nnc2c(-c3cccnc3)cccc2c1N`, affinity was put at a Ki of 2.6 nM.
With `CCCNC(=O)c1nnc2c(-c3ccc(Cl)cc3)cccc2c1N` the figure was 37.2 nM; with `CCCNC(=O)c1nnc2c(-c3cc(C)ccc3F)cccc2c1N`, 0.852 nM; with `CCCNC(=O)c1nnc2c(-c3cccc(F)c3OC)cccc2c1N`, 10.9 nM.
Molecule `CCNC(=O)c1nnc2c(-c3ccc(OC)cc3OC)cccc2c1N` came in with a Ki of 4.54 nM.
As for `CCCNC(=O)c1nnc2c(-c3cnccc3C)cccc2c1N`, the Ki amounted to 1.68 nM.
Take `CCCNC(=O)c1nnc2c(-c3cccc(S(C)(=O)=O)c3)cccc2c1N`: the affinity corresponds to a Ki of 10.4 nM.
In the case of `CCCNC(=O)c1nnc2c(-c3cc(C)ccc3OC)c(Cl)ccc2c1N`, the Ki was 2.89 nM.
Regarding `COc1ccc(-c2cccc3c(N)c(C(=O)NC4CC4)nnc23)c(OC)c1`, the Ki is 2.07 nM.
`CCCNC(=O)c1nnc2c(-c3cc(Cl)ccc3OC)c(F)ccc2c1N` came in with a Ki of 0.327 nM.
In turn, `CCCNC(=O)c1nnc2c(-c3cc(OC)ccc3OC)c(Cl)ccc2c1N` displayed a Ki of 13.9 nM.
In turn, `CCCNC(=O)c1nnc2c(-c3cc(F)ccc3F)c(F)ccc2c1N` returned a Ki of 45.8 nM.
As to `CCCNC(=O)c1nnc2c(-c3ccc(OC)cc3C(F)(F)F)c(F)ccc2c1N`, affinity was put at a Ki of 0.624 nM.
With `CCCNC(=O)c1nnc2c(-c3ccc(OC)c(F)c3)c(F)ccc2c1N` the figure was 2.88 nM.
The molecule `CCCNC(=O)c1nnc2c(-c3ccc(OC)c(OC)c3OC)cccc2c1N` gave an inhibition constant (Ki) of 6.75 nM.
With `CCCNC(=O)c1nnc2c(-c3ccc(OC)c(C)c3)cccc2c1N` the figure was 17.6 nM.
With `CNC(=O)c1nnc2c(-c3cnc(OC)nc3OC)cccc2c1N` the figure was 514 nM; with `CCCNC(=O)c1nnc2c(-c3cc(OC)c(OC)c(OC)c3)cccc2c1N`, 56.5 nM.
Molecule `CCCNC(=O)c1nnc2c(-c3cc(OC)ccc3Cl)c(F)ccc2c1N` had a Ki of 1.25 nM.
With `CCCNC(=O)c1nnc2c(-c3c(OC)cccc3OC)cccc2c1N` the figure was 624 nM.
The molecule `CCCNC(=O)c1nnc2c(-c3cc(C(F)(F)F)cc(C(F)(F)F)c3)cccc2c1N` gave a Ki of 356 nM.
Consider `CCCNC(=O)c1nnc2c(-c3ccccn3)cccc2c1N`, for which the Ki turned out to be 19.4 nM.
In turn, `CCCNC(=O)c1nnc2c(-c3ccncc3)cccc2c1N` yielded a Ki of 1.67 nM.
With `COc1ccncc1-c1cccc2c(N)c(C(=O)NC3CC3)nnc12` the figure was 0.785 nM.
With `CCCNC(=O)c1nnc2c(-c3ccc(OC)c(OC)c3)cccc2c1N` the figure was 3.88 nM; with `CCCNC(=O)c1nnc2c(-c3ccc(C)nc3F)cccc2c1N`, 1.67 nM.
Molecule `CCCNC(=O)c1nnc2c(-c3cccc(OC)c3F)cccc2c1N` registered a Ki of 3.41 nM.
